Measured values taken from PubChem BioAssay AID588588 (Sanford-Burnham Center for Chemical Genomics, 2011).
The source made the active and inactive calls. How the calls were made is not given here.

Target: glucose-6-phosphate dehydrogenase-6-phosphogluconolactonase (Plasmodium falciparum 3D7)
Test: PfG6PD enzyme inhibitors, direct NADPH readout, SAR follow-up, orthogonal assay, biochemical, end-point NADPH detection (AID 588588)
Conditions: recombinant PfG6PD-6PGL

IC50	SMILES
> 80 µM (inactive)	COc1cccc(/C=C2/Sc3ccc(C(=O)NCCN4CCCC4)cc3NC2=O)c1
> 80 µM (inactive)	Cc1cccc(C(=O)Nc2nnc(S(=O)(=O)N3CCCCCC3)s2)c1
